From ChEMBL document CHEMBL1126487, “Induction of reversible protein-linked DNA breaks in human osteogenic sarcoma cells by novel cytocidal colchicine derivatives which inhibit DNA topoisomerase II in vitro: Absence of cross-resistance in a colchicine-resistant sub-clone” (Bioorg Med Chem Lett, 1993)

How the values were obtained:
HOS = assay: Effective concentration required to inhibit growth of sub clone Hos colR cells; format: functional, cell-based; details: Homo sapiens
[1] = Toxicity against human Osteogenic sarcoma (Hos)cells; details: read-out: LD50 (the source's name)

Row | Compound | EC50 (HOS) [µM] | CC50 [1] [µM]
1 | O=C(N[C@H]1CCc2cc(O)c(O)c(O)c2-c2ccc(=O)c(O)cc21)c1cc(O)c(O)c(O)c1 | 28 | 18
2 | O=C(N[C@H]1CCc2cc(O)c(O)c(O)c2-c2ccc(=O)c(O)cc21)C(F)(F)F | 26 | 14
